From patent US6682925B1, “Streptomyces strain with insecticidal activity and method of using as an insecticide” (priority 2000, dated 2004)

Experiments:
Assay type in all cases: cell-based
Set-up in all cases: key: 5: five indicated growth equal to the water control; 1: a rating of one indicated the complete absence of growth; Index values two (2) through four (4) represent intermediate levels of sporulation and growth; 3: Index values two (2) through four (4) represent intermediate levels of sporulation and growth; Index values two (2) through four (4) represent intermediate levels of sporulation and growth; zero (0) indicates a failed or unnecessary test
Settings in all cases: chemical control, all independent replicated tests
[1] = system: Monilinuafructicola; experiment: agar overlay plant pathogen growth assay, MONF
Description: (§1) The novel Streptomyces galbus strain was grown for testing against plant pathogens in the following manner. The isolated microbe was initially fermented in three distinct actinomycete cultivation media. Media 38 was composed of 2 g/L tomato paste, 2 g/L oat flour, and 1.0 g/L sea salts. Media 31 was composed of 45 g/L oat flour, 2 g/L yeast extract, 6 g/L KH2PO4, and 4.8 g/L Na2HPO4, pH 7. Media 6 was composed of 20 g/L soluble starch, 10 g/L dextrose, 5 g/L yeast extract, 5 g/L N-Z amineA, and 1 g/L CaCO3.
(§2) The microbe was picked from tomato-oat flour agar (2 g/L tomato paste, 2 g/L oat flour, and 20 g/L agar) and introduced to 50 ml conical tubes containing 12 ml of sterile fermentation media capped with a foam plug. The inoculated tubes were incubated at 27±3° C., in an orbital shaker for six days. […]
(§3) The following pathogen/chemical pairs were tested: Alternaria brassisicola (ABRA Benomyl), Botrytris cinerea (BOTC/Benomyl), Monilinuafructicola (MONF/Benomyl), Phytophthora capsici (PCAP/Metalaxyl), Pseudomonas syringae (PSTO/Gentamycin), and Colletotrichum coccoides (COLC/Chlorothalonil). […] The chemical controls scored index ratings of one (1) in all of the independent replicated tests; and media blanks had ratings of five (5).

[2] = system: Alternaria brassisicola; experiment: agar overlay plant pathogen growth assay, ABRA
Description: as §1, §2, §3

[3] = system: Botrytris cinerea; experiment: agar overlay plant pathogen growth assay, BOTC
Description: as §1, §2, §3

[4] = system: Colletotrichum coccoides; experiment: agar overlay plant pathogen growth assay, COLC
Description: as §1, §2, §3

[5] = system: Phytophthora capsici; experiment: agar overlay plant pathogen growth assay, PCAP
Description: as §1, §2, §3

[6] = system: Pseudomonas syringae; experiment: agar overlay plant pathogen growth assay, PSTO
Description: as §1, §2, §3

CCCCNC(=O)n1c(NC(=O)OC)nc2ccccc21 [Benomyl]
MONF pathogen growth index rating [1]: 1 | ABRA pathogen growth index rating [2]: 1 | BOTC pathogen growth index rating [3]: 1

N#Cc1c(Cl)c(Cl)c(Cl)c(C#N)c1Cl [Chlorothalonil]
COLC pathogen growth index rating [4]: 1

COCC(=O)N(c1c(C)cccc1C)C(C)C(=O)OC (stereo not drawn) [Metalaxyl]
PCAP pathogen growth index rating [5]: 1

Gentamycin
PSTO pathogen growth index rating [6]: 1
